For seven compounds, IC50 and IC5 results are on record in ChEMBL document CHEMBL1268873, “Nitrile-containing pharmaceuticals: efficacious roles of the nitrile pharmacophore” (J Med Chem, 2010).

Assay [1] is described as follows: Inhibition of HIV RT. More on the design: species or system Human immunodeficiency virus.
Another assay has as its system L1210. Description: Cytotoxicity against mouse L1210 cells. The format is functional, cell-based. The following applies: for IC50: Mus musculus, L1210.
The test system of another assay is KB. In words: Cytotoxicity against human KB cells. The class given is functional, cell-based.

pIC50: −log10 of the molar value. Values after ≈ are worked out from the molar mass of the structure shown.

Consider `CCc1nn(CCO)c(CC)c1Oc1cc(C#N)cc(C#N)c1` [LERSIVIRINE], for which the pIC50 in assay [1] is 6.92.

As to `COc1cc([C@@H]2c3cc4c(cc3[C@@H](C(=O)O)[C@H]3COCC23)OCO4)cc(OC)c1OC` (stereo not given in full), the IC50 in the assay with L1210 is 0.164 mg/L (≈ 0.383 µM); in the assay with KB it was 10 mg/L (≈ 23.3 µM).

On to `CCc1nn(CCO)c(CC)c1Oc1cccc(C#N)c1`, for which the pIC50 in assay [1] is 6.46.

As to `COc1cc([C@@H]2c3cc4c(cc3[C@@H](O[C@@H]3O[C@@H]5CO[C@H](C)O[C@H]5[C@H](O)[C@H]3O)[C@H]3COCC23)OCO4)cc(OC)c1OC` (stereo not given in full), the IC50 in the assay on L1210 turned out to be 0.155 mg/L (≈ 0.263 µM); in the assay with KB, 0.308 mg/L (≈ 0.523 µM).

In assay [1], `Cc1c(Oc2cc(Cl)cc(Cl)c2)c(C(C)C)nn1CCO` showed a pIC50 of 6.25.

Take `CC(C)c1nc(COC(N)=O)n(Cc2ccncc2)c1Sc1cc(Cl)cc(Cl)c1` [CAPRAVIRINE]: the pIC50 in assay [1] is 7.03.

Regarding `COc1cc([C@@H]2c3cc4c(cc3[C@@H](C#N)[C@H]3COCC23)OCO4)cc(OC)c1OC` (stereo not given in full), in the assay on L1210, the IC5 was found to be 3.48 ng/mL. The midpoint of inhibition in the assay on KB, the IC50, lay at 0.155 mg/L (≈ 0.379 µM).

A word on the pIC50: it is the negative decadic logarithm of the IC50, by convention in mol/L. Higher therefore signals a small IC50. A word on the IC50: it is the midpoint of a concentration-inhibition curve. The low end stands for higher potency, the high end for lower potency.
